Reference: paper PMC5004205, “Spiro[pyrrolidine-3, 3´-oxindole] as potent anti-breast cancer compounds: Their design, synthesis, biological evaluation and cellular target identification” (Scientific Reports, 2016)
Converted amounts (≈) assume the structure as drawn. “And” between values parts separate entries of the source, which are not always exact repeats. Equal values may be shown once. “Also recorded” adds a separate entry of the source.

How the values were obtained:
[1] = test system: MCF-7 cells; conditions: cited from earlier work
[2] = test system: MCF-7 breast cancer cells; assay: MTT colorimetric cell viability assay, MCF-7; assay type: cell-based; conditions: for inhibition at 50 µM / EC50: Homo sapiens; for inhibition at 50 µM: MCF7, 48 hours, MTT, triplicates, read-out: Percentage inhibition MCF-7; for CTRL-TST/CTRL*100 (inhibition) MCF-7: EC50 plate; for EC50: MCF7, MTT, mean of three experiments
Description: MCF-7 cells were maintained as monolayer in 25 cm^2 culture flasks (T-25) at 37 °C in DMEM medium (GIBCO, St. Louis, USA) supplemented with high glucose, L-glutamine, pyridoxine hydrochloride, 110 mg/L sodium pyruvate, 3.7 g/L NaHCO3 and antibiotics (Penicillin-10,000 units/mL, Streptomycin −10,000 μg/mL, GIBCO, USA). Growth medium (pH 7.4) was prepared by adding 5% heat inactivated FBS (Fetal Bovine Serum, GIBCO, USA) and stored at 4 °C. The medium was changed 10–18 hrs prior to experiment, and cells were confluent at the time of experimentation. Cells were dislodged from flasks by gentle trypsinization containing 0.25% Trypsin. MCF-7 cells were regularly sub-cultured thrice a week in a seeding density of 40,000–50,000 cells/cm^2area. Cell confluency = 70%
The MTT colorimetric viability assay was performed to evaluate the anticancer effect of compounds. 30,000 cells/100 μl of media were seeded per well and allowed to stretch and adhere overnight at 37 °C. Following day media was removed and 100 μl fresh media was added to the grown cells. […] There was one positive and one negative control along with 13 compounds. The results were measured all in triplicate in 45 wells of 96 well plate at each time point. Cytotoxic effect was evaluated using ability of live cells to cleave MTT ((3-[4, 5- dimethylthiazol-2-yl]-2, 5-diphenyl tetrazolium bromide)) (Sigma-Aldrich, St Louis, MO, USA), into formazan crystals. Post 48 hours of treatment, 10 μl of MTT (5 mg/ml in PBS) was added to the cells and incubated for 4 hours in dark at 37 °C. The violet colored crystals formed were then dissolved in 100 μl DMSO solvent (Dimethyl Sulfoxide, Sigma-Aldrich, St. Louis, MO, USA). The colorimetric assay was read by a MultiMode Plate Reader (Bio-Rad) at 595 nm. Percentage of Inhibition of drug was calculated by following formula:
O.D1 O.D2 O.D3 AVG CTRL-TST CTRL-TST/CTRL*100 stdev

[3] = test system: COS-7 cells; assay: MTT colorimetric cell viability assay, COS-7; assay type: cell-based; conditions: for inhibition at 50 µM: Chlorocebus aethiops, COS-7, MTT, triplicates, read-out: Percentage inhibition COS-7
Description: (§1) The MTT colorimetric viability assay was performed to evaluate the anticancer effect of compounds. 30,000 cells/100 μl of media were seeded per well and allowed to stretch and adhere overnight at 37 °C. Following day media was removed and 100 μl fresh media was added to the grown cells. Adhered cells were then treated with the compounds 5a-m dissolved in DMSO in triplicates at a standard concentration of 50 μM for 48 hours. There was one positive and one negative control along with 13 compounds. The results were measured all in triplicate in 45 wells of 96 well plate at each time point. Cytotoxic effect was evaluated using ability of live cells to cleave MTT ((3-[4, 5- dimethylthiazol-2-yl]-2, 5-diphenyl tetrazolium bromide)) (Sigma-Aldrich, St Louis, MO, USA), into formazan crystals. Post 48 hours of treatment, 10 μl of MTT (5 mg/ml in PBS) was added to the cells and incubated for 4 hours in dark at 37 °C. The violet colored crystals formed were then dissolved in 100 μl DMSO solvent (Dimethyl Sulfoxide, Sigma-Aldrich, St. Louis, MO, USA). The colorimetric assay was read by a MultiMode Plate Reader (Bio-Rad) at 595 nm. Percentage of Inhibition of drug was calculated by following formula: […]

[4] = test system: MCF10A cells; assay: MTT cytotoxicity assay, MCF10A; assay type: cell-based; conditions: for CTRL-TST/CTRL*100 MCF10A cytotoxicity / Percentage inhibition MCF10A: 48 hours; for CTRL-TST/CTRL*100 MCF10A cytotoxicity: 595 nm; for Percentage inhibition MCF10A: MTT
Description: MCF10A was obtained from American Tissue Type Culture Collection (ATCC, Bethesda, MD). All cells were grown in a humidified atmosphere at 37 °C, with 5% CO2 in air.
as §1
Cytotoxicity assay with MCF 10A
Experiment :MCF10A cytotoxicity assay 48 hours
Raw Data{Wavelength:595.0}
O.D1 O.D2 O.D3 AVG CTRL-TEST CTRL-TST/CTRL*100
(1 picture or pasted object on this page, not shown here)

[5] = test system: MCF-7 cells; assay: Cell migration (scratch) assay; assay type: cell-based; conditions: 24 hours, compared to untreated cells
Description: MCF-7 cells were grown to confluence in six-well tissue culture plastic dishes to a density of ∼0.2 million cells/well. After 24 hrs of seeding, cells were treated with chemical compounds. The medium was removed and the cells were scratched by 200 μL pipette micro tip through the center of the plate. The cultures were washed to remove debris and re-cultured with DMEM containing 10% FBS for cell migration. The cells were imaged at 24 hrs and the migrated distance was measured. Migration rate was calculated by counting five to seven fields per image and the results presented as the average of three independent experiments performed over multiple days.

[6] = test system: MCF-7 cells; assay: DNA fragmentation (DNA-ladder) assay; assay type: cell-based; conditions: MCF-7, gel electrophoresis
Description: The DMSO (dimethyl sulphoxide)–SDS (sodium dodecyl sulphate)–TE (Tris-EDTA) method: 2 million MCF-7cells were taken as starting material for DNA isolation. Cells were dislodged with Trypsin-EDTA and washed with 1 X PBS. DMSO was added directly to the cell pellet (100 μl) and mixed well by pipetting. TE buffer (pH 7.4) with 2% SDS was added into the mixture with same volume, followed by pipetting. The solution was centrifuged at 3000 rpm at 4 °C and 30 μL of the supernatant was loaded on agarose gel to check the effect of drugs on DNA molecule.

[7] = test system: MCF-7 cells; assay: Annexin V/propidium iodide FACS assay; assay type: cell-based
Description: The assay is based on the ability of the protein annexin V to bind to phosphatidylserine (PS) exposed on the outer membrane leaflet in apoptotic cells (PS also appears on the necrotic cell surface). The annexin V assay was performed following the manufacturer’s instructions (Annexin V-FITC kit,Alexa Fluor). Briefly, the cells were washed with PBS and suspended in pre-diluted binding buffer. The cell density was adjusted to 2 million and 195 μl of cell suspension were mixed with 5 μl Annexin V-FITC and incubated for 10 min in the dark at room temperature. The cells were washed with binding buffer, re-suspended in 195 μl binding buffer, counterstained with 10 μl of the 20 μg/ml propidium iodide stock (final concentration 1 μg/ml) and the data were acquired by BD FACS diva 7.0 at 6 h, 12 h and 24 h.

[8] = test system: PKCα kinase; parameters: method as in Shantani UPT Application Notes; conditions: at 1μM; ref Shantani UPT Application Notes; cited from earlier work

In the case of `CS[C@@]1(C)C(=O)N(C)[C@@](Cc2c[nH]c3ccccc23)(SC)C(=O)N1C` [Chaetocochins G], the “IC50 in MCF-7” value [1] is given as 16.9 µg/mL (≈ 44.8 µM) and the “Mode of cell death” value [1] is given as “Induces Apoptosis”.

Compound `Cc1ccc(C2NCCC23C(=O)Nc2ccccc23)cc1` (centres unmarked) [Compound 5a] has an inhibition at 50 µM [2] of 35.06 ± 0.09% and an inhibition at 50 µM [3] of 11.73 ± 0.09%.

With `O=C1Nc2ccccc2C12CCNC2c1cccc(C(F)(F)F)c1` (centres unmarked) [Compound 5b] the inhibition at 50 µM [2] was 33.1 ± 0.12% and the inhibition at 50 µM [3] was 20.73 ± 0.11%.

`Cc1cc(C)cc(C2NCCC23C(=O)Nc2ccccc23)c1` (centres unmarked) [Compound 5c] showed an inhibition at 50 µM [2] of 34.46 ± 0.11% and an inhibition at 50 µM [3] of 28.8 ± 0.13%.

`O=C1Nc2ccccc2C12CCNC2c1c(F)cccc1F` (centres unmarked) [Compound 5d] showed an inhibition at 50 µM [2] of 44.25 ± 0.17% and an inhibition at 50 µM [3] of 9.22 ± 0.12%.

For `O=C1Nc2ccccc2C12CCNC2c1cccc(F)c1` (centres unmarked) [Compound 5e], the “CTRL-TST/CTRL*100 (inhibition) MCF-7” value ([2]; concentration row 10) was -4.013, the “CTRL-TST/CTRL*100 (inhibition) MCF-7” value ([2]; concentration row 20) was 8.388 and the “CTRL-TST/CTRL*100 (inhibition) MCF-7” value ([2]; concentration row 30) was 23.78. The “CTRL-TST/CTRL*100 (inhibition) MCF-7” value ([2]; concentration row 40) was 31.55, the “CTRL-TST/CTRL*100 (inhibition) MCF-7” value ([2]; concentration row 50) was 52.5 and the EC50 [2] was 6 µM. For the same compound, the inhibition at 50 µM [2] was 54.67 ± 0.08%, the “Inhibition of proliferation of healthy COS-7 cells” value [3] was “did not inhibit the proliferation” and the inhibition at 50 µM [3] was 3.56 ± 0.19%. For the same compound, the “Effect on proliferation of healthy MCF10A cells” value [4] was “did not inhibit the proliferation; also recorded: little or no effect”, the “CTRL-TST/CTRL*100 MCF10A cytotoxicity” value [4] was 4.48 and the “Percentage inhibition MCF10A” value [4] was 4.48%.

Compound `COc1cccc(C2NCCC23C(=O)Nc2ccccc23)c1` (centres unmarked) [Compound 5f] has an inhibition at 50 µM [2] of 38.48 ± 0.18% and an inhibition at 50 µM [3] of 34.87 ± 0.17%.

For `COc1ccc(C2NCCC23C(=O)Nc2ccccc23)cc1OC` (centres unmarked) [Compound 5g], the inhibition at 50 µM [2] was 25.29 ± 0.24% and the inhibition at 50 µM [3] was 2.39 ± 0.23%.

In the case of `COc1ccc(C2NCCC23C(=O)Nc2ccccc23)cc1` (centres unmarked) [Compound 5h], the inhibition at 50 µM [2] is reported as 50.62 ± 0.24% and the inhibition at 50 µM [3] is reported as 25.2 ± 0.06%.

In the case of `COc1cc(OC)c(C2NCCC23C(=O)Nc2ccccc23)cc1OC` (centres unmarked) [Compound 5i], the “CTRL-TST/CTRL*100 (inhibition) MCF-7” value ([2]; concentration row 10) is reported as 7.139, the “CTRL-TST/CTRL*100 (inhibition) MCF-7” value ([2]; concentration row 20) is reported as 20.22 and the “CTRL-TST/CTRL*100 (inhibition) MCF-7” value ([2]; concentration row 30) is reported as 43.4. The “CTRL-TST/CTRL*100 (inhibition) MCF-7” value ([2]; concentration row 40) was 50.54, the “CTRL-TST/CTRL*100 (inhibition) MCF-7” value ([2]; concentration row 50) was 66.16 and the EC50 [2] was 4.01 µM. The inhibition at 50 µM [2] was 53.66 ± 0.06%, the “Inhibition of proliferation of healthy COS-7 cells” value [3] was “did not inhibit the proliferation” and the inhibition at 50 µM [3] was 15.6 ± 0.09%. The “Effect on proliferation of healthy MCF10A cells” value [4] was “did not inhibit the proliferation; also recorded: little or no effect”, the “CTRL-TST/CTRL*100 MCF10A cytotoxicity” value [4] was 0.8 and the “Percentage inhibition MCF10A” value [4] was 0.8%. The “Inhibition of cell migration of MCF-7 cells” value [5] was “inhibit cell migration”, the “DNA fragmentation pattern / mode of cell death” value [6] was “smearing of DNA fragments” and the “Mode of cell death by Annexin-PI FACS” value [7] was “necrosis was also confirmed”.

`COc1ccc(C2NCCC23C(=O)Nc2ccccc23)c(F)c1` (centres unmarked) [Compound 5j] gave an inhibition at 50 µM [2] of 38.72 ± 0.15% and an inhibition at 50 µM [3] of 7.52 ± 0.15%.

Work on `COc1ccc(C2NCCC23C(=O)Nc2ccccc23)cc1C` (centres unmarked) [Compound 5k] yielded an inhibition at 50 µM [2] of 44.4 ± 0.09% and an inhibition at 50 µM [3] of 7.14 ± 0.19%.

Work on `O=C1Nc2ccccc2C12CCNC2c1cc(C(F)(F)F)ccc1C(F)(F)F` (centres unmarked) [Compound 5m] yielded an inhibition at 50 µM [2] of 31.81 ± 0.11% and an inhibition at 50 µM [3] of -0.51 ± 0.29%.

In the case of `COc1cc([C@@H]2c3cc4c(cc3[C@@H](O[C@@H]3O[C@@H]5CO[C@@H](C)O[C@H]5[C@H](O)[C@H]3O)[C@H]3COC(=O)[C@H]23)OCO4)cc(OC)c1O` [Etoposide, reference compound], the inhibition at 50 µM [2] is reported as 71.95 ± 0.11%, the “CTRL-TST/CTRL*100 (inhibition) MCF-7, positive control” value ([2]; eto control row of the EC50 plates of 5l, 5e, 5i, concentration not given, listed as eto) is reported as 70.96 and 73.49 and 73.1582 and the inhibition at 50 µM [3] is reported as 77.65 ± 0.1%.

In the case of Bisindolylmaleimide-III [Bis-III], the “Inhibition of PKCα kinase activity” value [8] is given as 93%.
